Assay results from patent US8691813B2, “Indole and benzoxazine derivatives as modulators of metabotropic glutamate receptors” (Janssen Pharmaceuticals, Inc., priority 2008, dated 2014).

Assays:
human mGluR2 = target: T1, human mGluR2 (Homo sapiens, UniProt Q14416); experiment: [35S]GTPγS binding assay (PAM assay) using membranes from CHO cells transfected with the human mGluR2 receptor; type: biochemical; conditions: in presence of glutamate at predetermined EC25 concentration, membranes containing human mGluR2, averages of duplicate values of 11-concentration response curves; for EC50: read-out: GTPγS -hR2 PAM pEC50 (converted)
T1 construct: expressed in transfected cells; host or cells: CHO cells (membrane preparation)
T1 sequence (Q14416 19-872): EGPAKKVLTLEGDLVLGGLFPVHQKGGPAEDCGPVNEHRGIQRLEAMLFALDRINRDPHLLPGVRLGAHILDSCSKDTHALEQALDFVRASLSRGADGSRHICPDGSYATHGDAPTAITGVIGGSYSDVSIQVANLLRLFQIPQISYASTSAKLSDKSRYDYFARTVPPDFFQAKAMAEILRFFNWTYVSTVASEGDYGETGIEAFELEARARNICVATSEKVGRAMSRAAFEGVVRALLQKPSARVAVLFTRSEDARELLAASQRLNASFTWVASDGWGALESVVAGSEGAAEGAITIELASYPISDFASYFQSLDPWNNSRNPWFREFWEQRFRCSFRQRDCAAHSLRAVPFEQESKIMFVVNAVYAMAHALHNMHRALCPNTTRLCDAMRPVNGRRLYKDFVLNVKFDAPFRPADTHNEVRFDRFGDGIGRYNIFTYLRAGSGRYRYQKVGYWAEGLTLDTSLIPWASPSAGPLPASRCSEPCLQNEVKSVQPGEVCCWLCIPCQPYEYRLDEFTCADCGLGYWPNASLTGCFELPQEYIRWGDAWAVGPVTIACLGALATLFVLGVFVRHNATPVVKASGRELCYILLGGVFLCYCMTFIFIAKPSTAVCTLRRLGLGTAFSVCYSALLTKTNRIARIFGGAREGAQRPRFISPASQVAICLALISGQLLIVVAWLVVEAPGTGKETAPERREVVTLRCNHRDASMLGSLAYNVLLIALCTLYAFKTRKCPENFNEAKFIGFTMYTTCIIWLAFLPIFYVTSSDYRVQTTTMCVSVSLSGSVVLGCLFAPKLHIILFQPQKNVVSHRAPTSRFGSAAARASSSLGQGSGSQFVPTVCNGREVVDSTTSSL
Procedure: The [^35S]GTPγS binding assay is a functional membrane-based assay used to study G-protein coupled receptor (GPCR) function whereby incorporation of a non-hydrolysable form of GTP, [^35S]GTPγS (guanosine 5′-triphosphate, labelled with […] ^35S), is measured.
CHO-cells were cultured to pre-confluence and stimulated with 5 mM butyrate for 24 hs, prior to washing in PBS (phosphate-buffered saline), and then collection by scraping in homogenisation buffer (50 mM Tris-HCl buffer, pH 7.4, 4° C.). Cell lysates were homogenized briefly (15 s) using an ultra-turrax homogenizer. The homogenate was centrifuged at 23 500×g for 10 min. and the supernatant discarded. The pellet was resuspended in 5 mM Tris-HCl, pH 7.4 and centrifuged again (30 000×g, 20 min., 4° C.). The final pellet was resuspended in 50 mM HEPES, pH 7.4 and stored at −80° C. in appropriate aliquots before use. Protein concentration was determined by the Bradford method (Bio-Rad, USA) with bovine serum albumin as standard.
Measurement of mGluR2 positive allosteric modulatory activity of test compounds in membranes containing human mGluR2 was performed using frozen membranes that were thawed and briefly homogenised prior to pre-incubation in 96-well microplates (15 μg/assay well, 30 minutes, 30° C.) in assay buffer (50 mM HEPES pH 7.4, 100 mM NaCl, 3 mM MgCl2, 50 μM GDP, 10 μg/ml saponin,) with increasing concentrations of positive allosteric modulator (from 0.3 nM to 50 μM) and either a minimal pre-determined concentration of glutamate (PAM assay), or no added glutamate. […] After addition of [^35S]GTPγS (0.1 nM, f.c.) to achieve a total reaction volume of 200 μl, microplates were shaken briefly and further incubated to allow [^35S]GTPγS incorporation on activation (30 minutes, 30° C.). The reaction was stopped by rapid vacuum filtration over glass-fibre filter plates (Unifilter 96-well GF/B filter plates, Perkin-Elmer, Downers Grove, USA) microplate using a 96-well plate cell harvester (Filtermate, Perkin-Elmer, USA), and then by washing three times with 300 μl of ice-cold wash buffer (Na2PO4.2H2O 10 mM, NaH2PO4.H2O 10 mM, pH=7.4). Filters were then air-dried, and 40 μl of liquid scintillation cocktail (Microscint-O) was added to each well, and membrane-bound [^35S]GTPγS was measured in a 96-well scintillation plate reader (Top-Count, Perkin-Elmer, USA). Non-specific [^35S]GTPγS binding is determined in the presence of cold 10 μM GTP. Each curve was performed at least once using duplicate sample per data point and at 11 concentrations.
The concentration-response curves of representative compounds of the present invention in the presence of added EC25 of mGluR2 agonist glutamate to determine positive allosteric modulation (PAM), were generated using the Prism GraphPad software (Graph Pad Inc, San Diego, USA).

Row | Structure (SMILES) | EC50 (human mGluR2) [nM] | GTPγS -hR2 PAM pEC50 (human mGluR2) | melting point [°C]
1 | OC1CCC(N2CCOc3cc(-c4ccn5c(CC(F)(F)F)cnc5c4Cl)ccc32)CC1 (mixture of isomers) [Compound 5, 4-[7-[8-Chloro-3-(2,2,2-trifluoro-ethyl)-imidazo[1,2-a]pyridin-7-yl]-2,3-dihydro-4H-1,4-benzoxazin-4-yl]-cyclohexanol] | 112 | – | –
2 | N#Cc1c(-c2cc(Cl)c3c(ccn3C3CCOCC3)c2)ccn2c(CC(F)(F)F)cnc12 [Compound 1, 7-[7-Chloro-1-(tetrahydro-pyran-4-yl)-1H-indol-5-yl]-3-(2,2,2-trifluoroethyl) imidazo[1,2-a]pyridine-8-carbonitrile] | 380 | – | –
3 | N#Cc1c(-c2ccc3c(ccn3C3CCOCC3)c2)ccn2c(CC(F)(F)F)cnc12 [Compound 6] | – | – | 232.9
4 | Cn1ccc2cc(-c3ccn4c(CC(F)(F)F)cnc4c3C#N)ccc21 [Compound 7] | – | 6.64 | –
5 | CC(C)(O)Cn1ccc2cc(-c3ccn4c(CC(F)(F)F)cnc4c3C#N)ccc21 [Compound 9] | 1070 | – | –
6 | Cn1ccc2cc(-c3ccn4c(CC(F)(F)F)cnc4c3C#N)cc(Cl)c21 [Compound 10] | – | – | 172
7 | N#Cc1c(-c2cc(Cl)c3c(ccn3CC3CC3)c2)ccn2c(CC(F)(F)F)cnc12 [Compound 11] | – | 6.96 | 175.3
8 | N#Cc1c(-c2ccc3c(c2)OCCN3CC2CC2)ccn2c(CC(F)(F)F)cnc12 [Compound 12] | 117 | – | –
9 | CN1CCOc2cc(-c3ccn4c(CC(F)(F)F)cnc4c3C#N)ccc21 [Compound 15] | 575 | – | –
10 | FC(F)(F)Cc1cnc2c(Cl)c(-c3cc(Cl)c4c(ccn4CC4CC4)c3)ccn12 [Compound 18] | – | 6.60 | 151.3
11 | C[C@]1(O)CC[C@H](n2ccc3cc(-c4ccn5c(CC(F)(F)F)cnc5c4C#N)ccc32)CC1 [Compound 21] | 309 | – | 138.6
12 | FC(F)(F)Cc1cnc2c(Cl)c(-c3ccc4c(ccn4-c4ccccn4)c3)ccn12 [Compound 24] | 468 | – | –
13 | FC(F)(F)Cc1cnc2c(Cl)c(-c3ccc4c(ccn4-c4ncccn4)c3)ccn12 [Compound 25, 8-Chloro-7-(1-pyrimidin-2-yl-1H-indol-5-yl)-3-(2,2,2-trifluoro-ethyl)-imidazo[1,2-a]pyridine] | 331 | – | –
14 | N#Cc1c(-c2ccc3c(ccn3Cc3ccncc3)c2)ccn2c(CC(F)(F)F)cnc12 [Compound 27] | 117 | – | –
15 | N#Cc1c(-c2ccc3c(ccn3-c3ccc(F)cc3)c2)ccn2c(CC(F)(F)F)cnc12 [Compound 29] | 200 | – | 197.3
16 | Cc1cc(Cn2ccc3cc(-c4ccn5c(CC(F)(F)F)cnc5c4C#N)ccc32)ccn1 [Compound 30] | 33.9 | – | –

The next lines start with the values.

Row | EC50 (human mGluR2) [nM] | GTPγS -hR2 PAM pEC50 (human mGluR2) | melting point [°C] | Structure (SMILES)
17 | – | 7.07 | 182.8 | FC(F)(F)Cc1cnc2c(Cl)c(-c3cc(Cl)c4[nH]ccc4c3)ccn12 [Compound 2, 8-Chloro-7-(7-chloro-M-indol-5-yl)-3-(2,2,2-trifluoroethyl)-imidazo[1,2-a]-pyridine]
18 | 166 | – | 131.6 | O[C@H]1CC[C@H](n2ccc3cc(-c4ccn5c(CC(F)(F)F)cnc5c4Cl)ccc32)CC1 [Compound 3]
19 | 129 | – | 262.2 | C[C@]1(O)CC[C@H](n2ccc3cc(-c4ccn5c(CC(F)(F)F)cnc5c4Cl)ccc32)CC1 [Compound 4, trans-4-[5-[8-Chloro-3-(2,2,2-trifluoroethyl)-imidazo[1,2-a]pyridin-7-yl]-1H-indol-1-yl-]-1-methyl-cyclohexanol]
20 | – | – | 117.9 | N#Cc1c(-c2ccc3c(ccn3CC3CC3)c2)ccn2c(CC(F)(F)F)cnc12 [Compound 13]
21 | 813 | – | – | CC(C)OCCn1ccc2cc(-c3ccn4c(CC(F)(F)F)cnc4c3C#N)ccc21 [Compound 14]
22 | 245 | – | – | N#Cc1c(-c2ccc3c(ccn3[C@H]3CC[C@H](O)CC3)c2)ccn2c(CC(F)(F)F)cnc12 [Compound 16]
23 | 191 | – | – | N#Cc1c(-c2ccc3c(c2)OCCN3[C@H]2CC[C@H](O)CC2)ccn2c(CC(F)(F)F)cnc12 [Compound 19]
24 | 501 | – | 171.1 | C[C@]1(O)CC[C@@H](n2ccc3cc(-c4ccn5c(CC(F)(F)F)cnc5c4C#N)ccc32)CC1 [Compound 22]
25 | 219 | – | – | N#Cc1c(-c2ccc3c(ccn3-c3ccccc3)c2)ccn2c(CC(F)(F)F)cnc12 [Compound 28]
